From patent publication EP4799624A2 (priority 2021, dated 2023)
≈ marks a conversion by molar mass, not a printed value. Like-named read-outs stand apart in the source and are kept apart here.

Tests used:
SARS-CoV-2 [1] = details: for activity in the HeLa-ACE2 cell-based SARS-CoV-2 assay: 35 ActivPred compounds tested; for Nh (Hill) coefficient: dose curves fitted with the four parameter Hill Equation
[2] = in vivo, cited from earlier work
SARS-CoV-2 [3] = details: Day 4, cited from earlier work
[4] = values compared in Example 2; cited from earlier work
in vivo = details: rat, po, 1000 mg/kg
[5] = human liver slices and microsomes; cited from earlier work
A/WSN/33 = experiment: Influenza antiviral assay (IF-based) in A549 cells; type: cell-based, H1N1 influenza A virus; details: Influenza A virus, A549, 24 h
[6] = rat and monkey studies; cited from earlier work
[7] = single oral doses 1-200 mg; cited from earlier work
COVID-19 = details: ReFRAME study A00473; cited from earlier work
SARS-CoV-2 [8] = details: cited from earlier work
[9] = ReFRAME study A00511; cited from earlier work
[10] = for adverse reactions / clinical signs: PO 50 and 250 mg/kg, single and 5 days, female 129S1 mice; for Mean: mean of 3 mice (± SD in Table 16); for AUC∞: extrapolated to ∞
SARS-CoV-2/WA1 = type: cell-based, SARS-CoV-2 isolate USA-WA1/2020; details: Severe acute respiratory syndrome coronavirus 2, HeLa-ACE2, read-out: SARS-CoV-2 IC50 value
[11] = range for all doses (10-200 mg), human plasma, cited from earlier work
SARS-CoV-2 [12] = experiment: microbe, parasite or virus in culture
[13] = rat, in vivo
Ebola VLP entry = details: cited from earlier work
SARS-CoV-2 [14] = details: same methods as used in this study; cited from earlier work
[15] = lung, 250 mg/kg PO five consecutive days (Group 2, MD)
[16] = plasma, 50 mg/kg PO five consecutive days (Group 1, MD)
[17] = plasma, 50 mg/kg PO single dose (Group 1, SD)
[18] = plasma, 50 mg/kg PO single dose (Group 1, SD), 50 mg/kg
[19] = plasma, 250 mg/kg PO five consecutive days (Group 2, MD)
[20] = plasma, 250 mg/kg PO single dose (Group 2, SD)
[21] = Severe acute respiratory syndrome coronavirus 2, HeLa-ACE2, 24 h

## Cc1c2c(nn1C)CSCc1cc(n(C)n1)CSc1cc(c3ccccc3c1)OCCCc1c(C(=O)O)n(C)c3c-2c(Cl)ccc13 [AZD-5991]
SARS-CoV-2 [1]
  activity in the HeLa-ACE2 cell-based SARS-CoV-2 assay: demonstrated activity

## Cc1c(-c2ccc(O)cc2)n(Cc2ccc(OCCN3CCCCCC3)cc2)c2ccc(O)cc12 [Bazedoxifene, reference compound]
[2]; human
  dose safely tolerated: 20 mg/day
[2]; rat
  dose safely tolerated: 100 mg/kg/day

## CNCc1ccc(-c2cc(-c3nc(-c4ccc(S(=O)(=O)C(C)C)cc4)cnc3N)on2)cc1 [Berzosertib, reference compound]
SARS-CoV-2 [1]
  activity in the HeLa-ACE2 cell-based SARS-CoV-2 assay: demonstrated activity
  Nh (Hill) coefficient: 1.485

## CC(C)(C)[C@H](NC(=O)C(F)(F)F)C(=O)N1C[C@H]2[C@@H]([C@H]1C(=O)N[C@H](C#N)C[C@@H]1CCNC1=O)C2(C)C [Nirmatrelvir]
SARS-CoV-2 [3]; 300 mg/kg
  log reduction in viral load: 1.4 log
SARS-CoV-2 [3]; 1000 mg/kg BID
  reduction in viral load: 1.91 log10 CCID50/mL
SARS-CoV-2 [3]; 1000 mg/kg
  log reduction in viral load: 1.9 log

## COc1cc(Cl)cc(C(C)Nc2cc(N3CCNCC3)ccc2S(C)(=O)=O)c1OC.Cl (stereo not drawn) [PRX-07034]
SARS-CoV-2 [1]
  activity in the HeLa-ACE2 cell-based SARS-CoV-2 assay: demonstrated activity

## Cc1c(-c2ccc(O)cc2)n(Cc2ccc(OCCN3CCCCC3)cc2)c2ccc(O)cc12 [Pipendoxifene, 2-(4-hydroxyphenyl)-3-methyl-1-[[4-(2-piperidin-1-ylethoxy)phenyl]methyl]indol-5-ol]
[4]
  t ½: 15.8 to 27.3 h
In vivo
  concentration at 6 h: 501 ng/mL
[5]
  primary human metabolite: the same indole glucuronide as found in the preclinical models
A/WSN/33
  IC50: 7.49 µM
[6]
  primary metabolite: primarily metabolized to an indole glucuronide
[7]
  tolerability: well tolerated with only mild transient adverse events observed at all doses
COVID-19
  result in COVID-19 Cytopathic Effect (CPE) Assay: INACTIVE
SARS-CoV-2 [8]
  result in SARS-CoV-2/HeLa-ACE2 HCI assay - % infected cells: INACTIVE
SARS-CoV-2 [1]
  EC50: 8.24 µM
  activity in the HeLa-ACE2 cell-based SARS-CoV-2 assay: demonstrated activity
  Nh (Hill) coefficient: 4
SARS-CoV-2 [1]; listed as pipendoxifene
  EC50: 8.42 µM
[9]
  result in SARS CoV-2 CPE Cytotoxicity Assay: INACTIVE
[10]; Group 2, MD (multiple, 5-day, dose) 250 mg/kg oral, 8.0 hr
  Average plasma concentration: 575 ± 194 ng/mL
[10]
  adverse reactions / clinical signs: no adverse events at doses up to 250mg/kg
[10]; listed as pipendoxifene
  adverse reactions / clinical signs: No adverse reactions were observed
[10]; lung tissue, individual mice, 50 mg/kg PO single dose, 8.0 hr, 50 mg/kg, 480 min
  Conc.: 7840 ng/g
[10]; lung tissue, 50 mg/kg PO five consecutive days, 8.0 hr, 50 mg/kg, 480 min
  Mean: 5613 ± 1602 ng/g
[10]; lung tissue, 50 mg/kg PO single dose, 4.0 hr, 50 mg/kg, 240 min
  Mean: 8310 ± 630 ng/g
[10]; lung tissue, 250 mg/kg PO five consecutive days, 4.0 hr, 250 mg/kg, 240 min
  Mean: 39000 ± 15321 ng/g
[10]; lung tissue, 250 mg/kg PO single dose, 8.0 hr, 250 mg/kg, 480 min
  Mean: 24733 ± 17321 ng/g
[10]; lung, 50 mg/kg PO five consecutive days (Group 1, MD)
  tmax: 8.0 h
[10]; [15]
  MRTlast: 7.22 h
  tmax: 4.0 h
[10]; lung, 250 mg/kg PO single dose (Group 2, SD)
  tmax: 8.0 h
[10]; mouse, in vivo, po
  plasma t1/2: 2.36 to 3.96 h
[10]; [16]
  MRTlast: 7.10 h
  t1/2: 2.58 h
  tmax: 6.0 h
  AUC∞: 1396 ng·h/mL
[10]; plasma, 50 mg/kg PO five consecutive days (Group 1, MD), 50 mg/kg
  AUClast (hr·ng/mL) ± SE: 1391 ± 55 ng·h/mL
[10]; [17]
  MRTlast: 6.95 h
  t1/2: 2.36 h
  tmax: 2.0 h
  AUC∞: 1602 ng·h/mL
[10]; [18]
  AUClast (hr·ng/mL) ± SE: 1600 ± 115 ng·h/mL
  Cmax (ng/mL) ± SE: 179 ± 21 ng/mL
[10]; [19]
  t1/2: 2.52 h
  tmax: 6.0 h
  AUC∞: 11664 ng·h/mL
[10]; plasma, 250 mg/kg PO five consecutive days (Group 2, MD), 250 mg/kg
  AUClast (hr·ng/mL) ± SE: 11628 ± 1191 ng·h/mL
[10]; [20]
  MRTlast: 8.86 h
  t1/2: 3.96 h
  tmax: 6.0 h
  AUC∞: 10461 ng·h/mL
[10]; plasma, 250 mg/kg PO single dose (Group 2, SD), 250 mg/kg
  Cmax (ng/mL) ± SE: 1020 ± 693 ng/mL
[10]; plasma, 50 mg/kg PO five consecutive days, 1.0 hr, 50 mg/kg, 60 min
  Mean: 56.0 ± 20.7 ng/mL
[10]; plasma, 50 mg/kg PO single dose, 2.0 hr, 50 mg/kg, 120 min
  Mean: 179 ± 37 ng/mL
[10]; plasma, 250 mg/kg PO five consecutive days, 8.0 hr, 250 mg/kg, 480 min
  Mean: 575 ± 194 ng/mL
[10]; plasma, 250 mg/kg PO single dose, 6.0 hr, 250 mg/kg, 360 min
  Mean: 1020 ± 1200 ng/mL
SARS-CoV-2/WA1
  IC50: 0.328 µg/mL (≈ 0.718 µM)
[2]; human
  dose safely tolerated: up to 200 mg/daily
[2]; mouse
  dose safely tolerated: at least 20 mg/kg/day
[11]
  mean terminal t1/2: 15.8 to 27.3 h
[11]; listed as pipendoxifene
  mean terminal t1/2: 15.8 to 27.3 h
SARS-CoV-2 [12]; Severe acute respiratory syndrome coronavirus 2, HeLa-ACE2
  EC90: 14.3 µM
SARS-CoV-2 [12]; [21]
  EC10: 5.01 µM
  EC50: < 9.6 µM
SARS-CoV-2 [12]; Severe acute respiratory syndrome coronavirus 2, HeLa-ACE2, calculated with the Hill equation (Equation I) from nH 4 and EC10
  EC90: 15 µM
SARS-CoV-2 [12]; Severe acute respiratory syndrome coronavirus 2, HeLa-ACE2, read-out: EC90 range, range from Equations I and II
  EC90: 14.3 to 15 µM
[13]
  Cmax: 311 1 42 ng/mL
  Lung C24h exceeding the IC50 value: 5.4 fold
[13]; po
  plasma t1/2: 4.71 to 6.06 h
[13]; po, 250 mg/kg
  AUClast ± SE: 3515 ± 980 ng·h/mL
[13]; po, 750 mg/kg
  AUClast ± SE: 5260 ± 1970 ng·h/mL

## CCC(CC)COC(=O)[C@H](C)N[P@](=O)(OC[C@H]1O[C@@](C#N)(c2ccc3c(N)ncnn23)[C@H](O)[C@@H]1O)Oc1ccccc1 [Remdesivir, reference compound]
[4]
  t ½: 1 h
SARS-CoV-2 [1]
  increase in EC50 from MOI=1 to MOI=26: 2.7 fold
SARS-CoV-2 [12]; [21]
  EC50: 0.13 µM

## Cc1cccc(/C=N/Nc2cc(N3CCOCC3)nc(OCCc3ccccn3)n2)c1 [apilimod, reference compound]
SARS-CoV-2 [1]
  increase in EC50 from MOI=1 to MOI=26: 3.7 fold
SARS-CoV-2 [12]; Severe acute respiratory syndrome coronavirus 2, HeLa-ACE2, read-out: maximal efficacy
  Emax: 85 to 90%

## COc1ccc(C[C@H](N)C(=O)N[C@H]2[C@@H](O)[C@H](n3cnc4c(N(C)C)ncnc43)O[C@@H]2CO)cc1 [puromycin, reference compound]
SARS-CoV-2 [12]; Severe acute respiratory syndrome coronavirus 2, HeLa-ACE2, […], average ± sem of 5 independent experiments
  EC50: 0.547 ± 0.027 µM

## O=C(c1ccc(OCCN2CCCCC2)cc1)c1c(-c2ccc(O)cc2)sc2cc(O)ccc12 [raloxifene]
Ebola VLP entry; Ebola VLP entry
  SI: > 10
Ebola VLP entry; speculated active compounds, read-out: IC50, block of Ebola VLP entry in vitro
  IC50: < 10 µM
SARS-CoV-2 [14]
  EC50: 4.13 µM

## Nc1ncnc2c1nc(Cl)n2[C@@H]1O[C@@H]2COP(=O)(O)O[C@H]2[C@H]1O [tocladesine]
SARS-CoV-2 [1]
  activity in the HeLa-ACE2 cell-based SARS-CoV-2 assay: demonstrated activity
